Experiments:
[1] = test system: tumor; settings: cited from earlier work
[2] = test system: Candida albicans; assay: Quantification of inhibition of the budded-to-hyphal-form transition and synergy assay in 10% serum media; format: cell-based; settings: 37° C., synergy assay: two molecules (100 μM) added together, normalized to % hyphae formed when no molecule was added
Description: Cultures of Candida albicans were grown as described in Toenjes K. A. et al. (Antimicrobial Agents and Chemotherapy, 49(3):963-972, 2005). To induce hyphal growth, stationary-phase cultures were diluted into 5 ml of either YPD (1% yeast extract, 2% peptone, and 2% dextrose) plus 10% (vol/vol) fetal calf serum, Spider medium, Lee's medium (Lee, K. et al., Sabouraudia, 13:148-153, 1975), or M199 pH 8 medium (Sigma-Aldrich, St. Louis, Mo.) and grown at 37° C. with shaking at 250 rpm.
Quantification of inhibition of the budded-to-hyphal-form transition was accomplished by counting the numbers of individual budded cells versus the number of hyphae in the population. More than 100 cells were counted for each assay in duplicate and all assays were repeated four times. Individual hyphae were counted as one cell, although the hyphae usually consisted of multiple individual hyphal cells. The percentage of hyphae reported was normalized to the percentage of hyphae formed when no molecule was added.
For the synergy assay, two different molecules (100 μM) were added together and the assay was performed in 10% serum media to induce hyphal formation.

Compound | anti-tumor activity [1] | % hyphae in 10% serum [2] [%]
CCC(C)C(COC(Cc1ccccc1)C(=O)NC(CCS(C)(=O)=O)C(=O)OC(C)C)NCC(N)CS [L-744,832, (2S)-2-[[(2S)-2-[(2S,3S)-2-[(2R)-2-Amino-3-mercaptopropyl]amino]-3-methylpentyl]oxy]-1-oxo-3-phenylpropyl]amino]-4-(methylsulfonyl)-butanoic Acid 1-Methylethyl Ester] | potent anti-tumor activity | 
CN1CCN(C2=Nc3cc(Cl)ccc3Nc3ccccc32)CC1 [Clozapine, 8-Chloro-11-(4-methyl-1-piperazinyl)-5H-dibenzo[b,e][1,4]-diazepine] |  | 33
OCc1ccc(-c2nn(Cc3ccccc3)c3ccccc23)o1 [YC-1, 3-(5′-Hydroxymethyl-2′-furyl)-1-benzylindazole] | potent anti-tumor activity | 
CCOC(=O)C1=C(N)Oc2ccc(Br)cc2C1C(C#N)C(=O)OCC (centres unmarked) [HA14-1, Ethyl[2-amino-6-bromo-4-(1-cyano-2-ethoxy-2-oxoethyl)]-4H-chromene-3-carboxylate] |  | 34
O=C(Nc1ccccc1)c1cc([N+](=O)[O-])ccc1Cl [GW9662, 2-Chloro-5-nitro-N-phenylbenzamide] |  | 59
